Reference: patent publication US7563459B2, “Methods and compositions for regenerating tissue” (The United States of America as represented by the …, priority 2002, dated 2009)
Entries after “also recorded” stand apart in the source; their conditions may differ.

Experiments:
[1] = system: human mesenchymal stem cells (MSC); experiment: In vivo trafficking of 111In-labeled human mesenchymal stem cells (MSC) after glycoprotein pretreatment, gamma camera imaging; parameters: species or system NOD-SCID mice
Method: Human mesenchymal stem cells (hMSCs; PT-2501) obtained through an FDA-monitored, paid bone marrow donor program were purchased from Poietics Technologies, BioWhittaker (Walkerville, Md.). The cells were thawed according to manufacturer recommendations, resuspended, and radiolabelled in Mesenchymal Stem Cell Basal Medium (MSCBM).
^111Indium Oxine Labelling Procedure: ^111In-oxine labelling of adult human CD34+ or mesenchymal stem cells (hMSCs) was performed using a modification of the Amersham Healthcare Procedure for labelling autologous leukocytes.
Imaging procedures: Nuclear Medicine. NOD-SCID mice were anesthetized using rodent anesthesia cocktail. Once anesthetized, the mice were placed on a foam hemi-cylindrical mouse-positioning device (MPD,) and covered with a tube sock. The MPD allows better visual separation of the lungs and liver as compared to placing the mouse on a flat surface. The foam on which the mouse was placed, and the tube sock covering maintained a comfortable temperature permitting longer imaging without additional anesthesia. The MPD was placed on a narrow table between the dual heads of a Siemens E.Cam Gamma Camera and imaged statically or dynamically in 2-D or SPECT. ^57Co-Spot Marker is used to mark anatomic positions (nose, tail, cannula, etc.). The data was analyzed using a Siemens ICON system for regions of interest or percent of injected dose (e.g., liver, spleen, heart).
Gamma camera imaging using a Siemens E.Cam dual head gamma camera monitored the in vivo trafficking patterns of all human stem cells described in the following examples. Mice were placed on a Mouse Positioning Device (MPD) and placed between the detectors on the imaging platform.
MSC were obtained from BioWhittaker, (Poietics Division, cryopreserved PT-2501>750000 cells per ampoule) and labelled with ^111In as in previous examples, except that the MSC were labelled, washed, and injected in Basal Stem Cell Medium (Poietics) containing 5% human serum albumin (HSA). 0.56×10^6, ^111In-labelled, human mesenchymal stem cells (MSC) were administered via an implanted DaVinci Microport Vascular System cannula in the external jugular vein of a two-month old, female NOD-SCID mouse in 0.21 ml of basal stem cell medium containing 5% human serum albumin (HSA). Immediately prior to administration of MSC, 11.0 mg of orosomucoid was administered i.v. in 0.2 ml.
0.56×10^6, ^111In-labeled MSC were administered i.v. in 0.21 ml of basal stem cell medium containing 5% human serum albumin (HSA). […]

[2] = system: human mesenchymal stem cells (MSC); experiment: In situ hybridization for human DNA in organs after MSC infusion; format: in vivo, NOD-SCID mice; details: 0.56×10^6 MSC preceded by 11 mg orosomucoid i.v.
From the text: Mice were imaged and the biodistribution of the radiolabelled MSCs cells monitored as described in Example 1. […] The positions of the cannula, diaphragm, heart, lungs, and liver were verified by CT scans (coronal sections).
The positions of the cannula, diaphragm, heart, lungs, and liver were verified by CT scans. In situ hybridization confirmed the gamma camera biodistribution data.

[3] = system: human CD34+ (hCD34+) peripheral blood stem cells; experiment: In vivo trafficking of 111In-labeled human CD34+ stem cells (HSC) after glycoprotein pretreatment, gamma camera imaging; parameters: species or system NOD-SCID mice
[4] = system: platelet aggregation induced by ADP and adrenaline; details: reported in the literature; cited from earlier work
[5] = system: human CD34+ (hCD34+) peripheral blood stem cells; experiment: Microscopic examination of organs: immunohistochemical staining for human CD34 and in situ hybridization for human DNA after HSC infusion; format: in vivo, NOD-SCID mice
From the text: Harvesting for tissues for histopathology: Tissues were harvested after euthanasia. After the 1-hour image, the organs were harvested and half the organ was fixed in 10% neutral buffered formalin and the other half was frozen in OTC for frozen sections. The images presented herein are from fixed tissues.
Necropsy Procedure For Collection of Mouse Tissues: An initial midline skin incision from the anterior cervical region to the brim of the pubis was made followed by an abdominal incision following linea alba from the sternum to the pubis with a lateral reflection of the abdominal wall by incision following the caudal ribs. The sternum was reflected anteriorly by cutting the ribs at approximately the level of the costochrondral junction, incising the diaphragm and pericardium as needed. Anteriorly, reflection of sternum was extended to include the ventral cervical muscles to expose the trachea. The trachea and esophagus were incised at the mid cervical area and reflected caudally, cutting attachments as necessary to remove the thoracic viscera in toto. Following removal of the thoracic viscera, the entire heart was dissected free and immersed in 10% neutral buffered formalin. […]
Mice were imaged and the biodistribution of the radiolabelled hCD34+ cells monitored as described above. […]

[6] = cells infused into the jugular vein of immunodeficient mice, preceded by an infusion of the protein

Orosomucoid: alpha-(1)-acid glycoprotein, a normal constituent of human plasma; single polypeptide chain, approximately 45% carbohydrate including 12% sialic acid
% Infused Cells In Heart ([1]; 0.56×10^6 MSC preceded by 11 mg orosomucoid i.v., 0 hr): 61.7-75.5% | % Infused Cells In Heart ([1]; 0.56×10^6 MSC preceded by 11 mg orosomucoid i.v., 1 hr): 58-64% | % Infused Cells In Heart ([1]; MSC/Orosomucoid, at 12 hr (Table 1)): 61 ± 3% at 12 hr | Organ in which mesenchymal stem cells localize (summary, words) [1, 6]: predominantly localize in the heart | Location of human cells by in situ hybridization [2]: human cells predominantly in the heart, but not the liver | % infused cells in liver region ([3]; 0.5×10^6 HSC preceded by 11 mg orosomucoid i.v., 1 hr): 40±3% | % infused cells in liver and spleen ([3]; 0.5×10^6 HSC preceded by 11 mg orosomucoid i.v., immediately after infusion): 43±2% | 111In-labeled HSC in the region of the heart (imaging, words) ([3]; 5.75×10^6 HSC preceded by 5.5 mg orosomucoid i.v.): No ^111In-labeled cells were found in the region of the heart | Organ in which hematopoietic stem cells localize (summary, words) [3, 6]: localize in the liver | Amounts that inhibit platelet aggregation [4]: 5 to 15 mg/mL | Tissue location of hCD34+ cells (CD34 staining, in situ hybridization for human DNA) ([5]; 0.5×10^6 HSC preceded by 11 mg orosomucoid i.v., about 1 hour after infusion): Clusters of cells with stem cell morphology could be seen in the hepatic sinusoid; also recorded: not found in the heart muscle or interventricular septum but were present in the lung | Migration of stem cells into tissue (summary, words) ([5]; hematopoietic stem cells after protein infusion): clusters of stem cells are found in the liver parenchyma
